Tested on: Streptococcus mutans UA159 (ATCC 700610)
Experiment: Direct bacterial killing experiment, spiral plating viability
Format: cell-based
Procedure: A direct bacterial killing experiment was done using spiral plating to measure the viability of the Streptococcus mutans UA159 (ATCC 700610) (S. mutans). Streptococcus mutans is facultatively anaerobic, gram-positive coccus-shaped bacterium commonly found in the human oral cavity and is a significant contributor to tooth decay.
All of Examples 4-6 were measured blindly without any knowledge of their composition. This was accomplished by pipetting 1 ml of the diluted sample powder particles (100 mg/ml) into 3 ml of Tryptic Soy broth containing 1% sucrose (TSBS) and 20 ul of an overnight culture of S. mutans. The inoculated suspensions were incubated for 24 hours at 37° C. in 5% CO2, diluted 1:10 and 1:1000, and spiral plated onto blood agar plates. The colonies on the plates were counted in a Colony Forming Unit (CFU) after 24 hours of incubation. Regarding controls, 0.12% chlorhexidine (CHX) was used a positive control, and sterile water was used as a negative control.

Structure (SMILES): [H]/N=C(\N/C(=N/[H])NCCCCCCNC(=N)NC(=N)Nc1ccc(Cl)cc1)Nc1ccc(Cl)cc1 [CHX control, chlorhexidine]
- Inhibition of S. mutans in the viability assay (in words) (24 hours incubation): significantly inhibited
- Mean (CFU/ml) (S. mutans, 1 ml of 100 mg/ml sample powder in 3 ml TSBS, 24 hours at 37° C., 5% CO2, CHX 0.12%): 1.67 × 10^2 ± 0.047 CFU/ml

Source: patent publication US20180296447A1, “BIOCIDAL COMPOSITIONS AND RELATED METHODS” (Imerys Filtration Minerals, Inc., priority 2015, published 2018)
